Earlier results on one substance are cited in paper PMC3744102 (2010).

Where “and” joins values, the source holds several entries; their conditions need not be identical. Equal entries are not always repeated. Entries after “also recorded” stand apart in the source; their conditions may differ.

For Y-G-G-F-L-R-R-I-R-P-K-L-K-W-D-N-Q, the cleaved bond result is recorded as “Arg6-Arg7, major; also recorded: Tyr1-G2, major” in “human blood” and “Arg6-Arg7, major; also recorded: Tyr1-G2, major” in the series “rhesus monkey blood”. For the same substance, the fragment found is 3–17 and 4–17 and 2–6 and 8–17 and 9–17 and 11–17 in the series “human blood”; 2–6 and 8–17 and 9–17 and 11–17 and 3–17 and 4–17 in “rhesus monkey blood”.
